Source: patent US20250297243A1, “SINGLE CELL MULTIOMICS” (BioSkryb Genomics, Inc., priority 2022, published 2025)

Tested on: MOLM-13 acute myeloid leukemia cells
Assay: MOLM-13 quizartinib drug resistance model (cell growth under continual drug treatment)
Format: cell-based
Procedure: Since the ITD mutation, found in ˜20% of AML patients, hyperactivates FLT3 signaling and results in poor prognosis and relapse, non-resistant, drug-sensitive cells were treated with a continual dose of 2 nM quizartinib. This drug is a selective type II kinase inhibitor targeting FLT3. […] MOLM-13 acute myeloid leukemia cells harboring heterozygous FLT3 internal tandem duplication (ITD) were obtained from the DSMZ-German Collection of Microorganisms and Cell Cultures (ACC 554). Cells were maintained in RPMI 1640 (Gibco 11875-093) supplemented with 10% FBS and penicillin/streptomycin, and sub-cultured every 2-3 days while maintaining a density range of 2.5 E5-1.5 E6 cells/ml. For generation of the quizartinib-resistant MOLM-13 line, cells were continually treated with 2 nM quizartinib (Selleckchem AC220) or DMSO vehicle control for matched parental control line and drug replenished at each subculturing until emergence of resistant clones at 5 weeks duration in culture. Genomic DNA (Zymo Research Quick-DNA Microprep w\Plus Kit, D3020) or total RNA (Qiagen RNeasy Plus Kit, 74034) was isolated from quizartinib-resistant and matched parental MOLM-13 cells at time of FACS sorting to generate bulk sequencing control libraries for comparison to single cell datasets and for quantitative PCR template.

## CC(C)(C)c1cc(NC(=O)Nc2ccc(-c3cn4c(n3)sc3cc(OCCN5CCOCC5)ccc34)cc2)no1 [quizartinib]
Continual 2 nM quizartinib, drug replenished at each subculturing
  emergence of resistant clones, duration in culture: 5 weeks
Continual dose of 2 nM quizartinib, FLT3 ITD MOLM-13 cells, before resistance emerged
  growth inhibition/apoptosis of drug-sensitive MOLM-13 cells: marked growth inhibition/apoptosis
